# Assays:
# [1] = tested on: recombinant NL4-3 virus; test: HIV cell culture assay (antiviral activity, luciferase readout); type: cell-based; conditions: Human immunodeficiency virus 1, NL43, MT2, MT-2 cells infected for 4-5 days with recombinant NL4-3 virus carrying Renilla luciferase
# Protocol: HIV cell culture assay—MT-2 cells, 293T cells and the proviral DNA clone of NL4-3 virus were obtained from the NIH AIDS Research and Reference Reagent Program. MT-2 cells were propagated in RPMI 1640 media supplemented with 10% heat inactivated fetal bovine serum (FBS), […]. The 293T cells were propagated in DMEM media supplemented with 10% heat inactivated FBS, […]. A recombinant NL4-3 proviral clone, in which a section of the nef gene was replaced with the Renilla luciferase gene, was used to make the reference virus used in these studies. The recombinant virus was prepared through transfection of the recombinant NL4-3 proviral clone into 293T cells using Transit-293 Transfection Reagent from Mirus Bio LLC (Madison, WI). Supernatent was harvested after 2-3 days and the amount of virus present was titered in MT-2 cells using luciferase enzyme activity as a marker by measuring luciferase enzyme activity. Luciferase was quantitated using the EnduRen Live Cell Substrate from Promega (Madison, Wis.). Antiviral activities of compounds toward the recombinant virus were quantified by measuring luciferase activity in MT-2 cells infected for 4-5 days with the recombinant virus in the presence of serial dilutions of the compound.
# The 50% effective concentration (EC50) was calculated by using the exponential form of the median effect equation where (Fa)=1/[1+(ED50/drug conc.)m] (Johnson VA, Byington RT. Infectivity Assay. In Techniques in HIV Research. ed. Aldovini A, Walker BD. 71-76. New York: Stockton Press. 1990). The 50% inhibitory concentration (EC50) was calculated by using the exponential form of the median effect equation where percent inhibition=1/[1+(EC50/drug concentration)m], where m is a parameter that reflects the slope of the concentration-response curve.
# [2] = Compound cytotoxicity, XTT-based colorimetric assay; type: cell-based; conditions: human; uninfected MT2 cells, day 4, XTT assay
# Protocol: Compound cytotoxicity and the corresponding CC50 values were determined using the same protocol as described in the antiviral assay except that uninfected cells were used. Cytotoxicity was assessed on day 4 in uninfected MT2 cells by using a XTT (2,3-bis[2-Methoxy-4-nitro-5-sulfophenyl]-2H-tetrazolium-5-carboxyanilide inner salt)-based colorimetric assay (Sigma-Aldrich, St Louis, Mo.).
SMILES,EC50 [1] [nM],CC50 at 4 day [2] [nM]
"Cn1nc(NS(C)(=O)=O)c2c(Cl)ccc(-n3c([C@H](Cc4cc(F)cc(F)c4)NC(=O)Cn4nc(C(F)F)c5c4C(F)(F)[C@@H]4C[C@H]54)nc4nc(-c5ccc6ocnc6c5)ccc4c3=O)c21 (atropisomer, axis not shown; (P)) [Example 81, N-((S)-1-(7-(benzo[d]oxazol-5-yl)-(3P)-3-(4-chloro-1-methyl-3-(methylsulfonamido)-1H-indazol-7-yl)-4-oxo-3,4-dihydropyrido[2,3-d]pyrimidin-2-yl)-2-(3,5-difluorophenyl)ethyl)-2-((3bS,4aR)-3-(difluoromethyl)-5,5-difluoro-3b,4,4a,5-tetrahydro-1H-cyclopropa[3,4]cyclopenta[1,2-c]pyrazol-1-yl)acetamide]",0.082,> 100
"Cn1nc(NS(C)(=O)=O)c2c(Cl)ccc(-n3c([C@H](Cc4cc(F)cc(F)c4)NC(=O)Cn4nc(C(F)F)c5c4C(F)(F)[C@@H]4C[C@H]54)nc4nc(-n5cnc(C(F)(F)F)n5)ccc4c3=O)c21 (atropisomer, axis not shown; (P)) [Example 80, N-((S)-1-((3P)-3-(4-chloro-1-methyl-3-(methylsulfonamido)-1H-indazol-7-yl)-4-oxo-7-(3-(trifluoromethyl)-1H-1,2,4-triazol-1-yl)-3,4-dihydropyrido[2,3-d]pyrimidin-2-yl)-2-(3,5-difluorophenyl)ethyl)-2-((3bS,4aR)-3-(difluoromethyl)-5,5-difluoro-3b,4,4a,5-tetrahydro-1H-cyclopropa[3,4]cyclopenta[1,2-c]pyrazol-1-yl)acetamide]",0.028,> 100
"Cn1nc(NS(C)(=O)=O)c2c(Cl)ccc(-n3c([C@H](Cc4cc(F)cc(F)c4)NC(=O)Cn4nc(C(F)F)c5c4C(F)(F)[C@@H]4C[C@H]54)nc4nc(-c5ccn(CC(F)F)n5)ccc4c3=O)c21 (atropisomer, axis not shown; (P)) [Example 79, N-((S)-1-((3P)-3-(4-chloro-1-methyl-3-(methylsulfonamido)-1H-indazol-7-yl)-7-(1-(2,2-difluoroethyl)-1H-pyrazol-3-yl)-4-oxo-3,4-dihydropyrido[2,3-d]pyrimidin-2-yl)-2-(3,5-difluorophenyl)ethyl)-2-((3bS,4aR)-3-(difluoromethyl)-5,5-difluoro-3b,4,4a,5-tetrahydro-1H-cyclopropa[3,4]cyclopenta[1,2-c]pyrazol-1-yl)acetamide]",0.047,> 100
"Cn1nc(NS(C)(=O)=O)c2c(Cl)ccc(-n3c([C@H](Cc4cc(F)cc(F)c4)NC(=O)Cn4nc(C(F)F)c5c4C(F)(F)[C@@H]4C[C@H]54)nc4nc(-c5cnn(CC(F)(F)F)c5)ccc4c3=O)c21 (atropisomer, axis not shown; (P)) [Example 75, N-((S)-1-((3P)-3-(4-chloro-1-methyl-3-(methylsulfonamido)-1H-indazol-7-yl)-4-oxo-7-(1-(2,2,2-trifluoroethyl)-1H-pyrazol-4-yl)-3,4-dihydropyrido[2,3-d]pyrimidin-2-yl)-2-(3,5-difluorophenyl)ethyl)-2-((3bS,4aR)-3-(difluoromethyl)-5,5-difluoro-3b,4,4a,5-tetrahydro-1H-cyclopropa[3,4]cyclopenta[1,2-c]pyrazol-1-yl)acetamide]",0.09,> 100
"Cc1cc(-c2ccc3c(=O)n(-c4ccc(Cl)c5c(NS(C)(=O)=O)nn(C)c45)c([C@H](Cc4cc(F)cc(F)c4)NC(=O)Cn4nc(C(F)F)c5c4C(F)(F)[C@@H]4C[C@H]54)nc3n2)n(C)n1 (atropisomer, axis not shown; (P)) [Example 70, N-((S)-1-((3P)-3-(4-chloro-1-methyl-3-(methylsulfonamido)-1H-indazol-7-yl)-7-(1,3-dimethyl-1H-pyrazol-5-yl)-4-oxo-3,4-dihydropyrido[2,3-d]pyrimidin-2-yl)-2-(3,5-difluorophenyl)ethyl)-2-((3bS,4aR)-3-(difluoromethyl)-5,5-difluoro-3b,4,4a,5-tetrahydro-1H-cyclopropa[3,4]cyclopenta[1,2-c]pyrazol-1-yl)acetamide]",0.041,> 100
"Cn1nc(NS(C)(=O)=O)c2c(Cl)ccc(-n3c([C@H](Cc4cc(F)cc(F)c4)NC(=O)Cn4nc(C(F)F)c5c4C(F)(F)[C@@H]4C[C@H]54)nc4nc(-c5ccc6ncsc6c5)ccc4c3=O)c21 (atropisomer, axis not shown; (P)) [Example 71, N-((S)-1-(7-(benzo[d]thiazol-6-yl)-(3P)-3-(4-chloro-1-methyl-3-(methylsulfonamido)-1H-indazol-7-yl)-4-oxo-3,4-dihydropyrido[2,3-d]pyrimidin-2-yl)-2-(3,5-difluorophenyl)ethyl)-2-((3bS,4aR)-3-(difluoromethyl)-5,5-difluoro-3b,4,4a,5-tetrahydro-1H-cyclopropa[3,4]cyclopenta[1,2-c]pyrazol-1-yl)acetamide]",0.097,> 100
"Cn1nc(NS(C)(=O)=O)c2c(Cl)ccc(-n3c([C@H](Cc4cc(F)cc(F)c4)NC(=O)Cn4nc(C(F)F)c5c4C(F)(F)[C@@H]4C[C@H]54)nc4nc(-c5cnn(C6CC6)c5)ccc4c3=O)c21 (atropisomer, axis not shown; (P)) [Example 74, N-((S)-1-((3P)-3-(4-chloro-1-methyl-3-(methylsulfonamido)-1H-indazol-7-yl)-7-(1-cyclopropyl-1H-pyrazol-4-yl)-4-oxo-3,4-dihydropyrido[2,3-d]pyrimidin-2-yl)-2-(3,5-difluorophenyl)ethyl)-2-((3bS,4aR)-3-(difluoromethyl)-5,5-difluoro-3b,4,4a,5-tetrahydro-1H-cyclopropa[3,4]cyclopenta[1,2-c]pyrazol-1-yl)acetamide]",0.054,> 100
"Cn1nc(NS(C)(=O)=O)c2c(Cl)ccc(-n3c([C@H](Cc4cc(F)cc(F)c4)NC(=O)Cn4nc(C(F)F)c5c4C(F)(F)[C@@H]4C[C@H]54)nc4nc(-c5cncc(Cl)c5)ccc4c3=O)c21 (atropisomer, axis not shown; (P)) [Example 29, N-((S)-1-((3P)-3-(4-chloro-1-methyl-3-(methylsulfonamido)-1H-indazol-7-yl)-7-(5-chloropyridin-3-yl)-4-oxo-3,4-dihydropyrido[2,3-d]pyrimidin-2-yl)-2-(3,5-difluorophenyl)ethyl)-2-((3bS,4aR)-3-(difluoromethyl)-5,5-difluoro-3b,4,4a,5-tetrahydro-1H-cyclopropa[3,4]cyclopenta[1,2-c]pyrazol-1-yl)acetamide]",0.057,> 100
"Cn1nc(NS(C)(=O)=O)c2c(Cl)ccc(-n3c([C@H](Cc4cc(F)cc(F)c4)NC(=O)Cn4nc(C(F)F)c5c4C(F)(F)[C@@H]4C[C@H]54)nc4nc(-c5ccc(OC(F)(F)F)cc5)ccc4c3=O)c21 (atropisomer, axis not shown; (P)) [Example 26, N-((S)-1-((3P)-3-(4-chloro-1-methyl-3-(methylsulfonamido)-1H-indazol-7-yl)-4-oxo-7-(4-(trifluoromethoxy)phenyl)-3,4-dihydropyrido[2,3-d]pyrimidin-2-yl)-2-(3,5-difluorophenyl)ethyl)-2-((3bS,4aR)-3-(difluoromethyl)-5,5-difluoro-3b,4,4a,5-tetrahydro-1H-cyclopropa[3,4]cyclopenta[1,2-c]pyrazol-1-yl)acetamide]",0.51,> 100
"Cn1nc(NS(C)(=O)=O)c2c(Cl)ccc(-n3c([C@H](Cc4cc(F)cc(F)c4)NC(=O)Cn4nc(C(F)F)c5c4C(F)(F)[C@@H]4C[C@H]54)nc4nc(-c5ccn(CC(F)(F)C(F)F)n5)ccc4c3=O)c21 (atropisomer, axis not shown; (P)) [Example 84, N-((S)-1-((3P)-3-(4-chloro-1-methyl-3-(methylsulfonamido)-1H-indazol-7-yl)-4-oxo-7-(1-(2,2,3,3-tetrafluoropropyl)-1H-pyrazol-3-yl)-3,4-dihydropyrido[2,3-d]pyrimidin-2-yl)-2-(3,5-difluorophenyl)ethyl)-2-((3bS,4aR)-3-(difluoromethyl)-5,5-difluoro-3b,4,4a,5-tetrahydro-1H-cyclopropa[3,4]cyclopenta[1,2-c]pyrazol-1-yl)acetamide]",0.041,> 100
